Marks after values point to notes of the source that are not given here.
What was measured:
mice = experiment: Maximal Electroshock Test (MES); format: in vivo; settings: for MES % Protection from Tonic Extension: 20 mice; for Time of Straightening Reflex Loss: mean of 20 mice
Experimental: MES seizures were induced by electroconvulsometer (ECT Unit Ugo Basile, Italy). Mice received an electroshock (50 mA at 60 Hz for 0.2 s duration) through intra-corneal electrodes. This current intensity elicited complete tonic extension of the hindlimbs in control mice. The stimulus was applied 30 min or 60 min after intraperitoneal (i.p.) or oral (p.o.) administration of the test compound, respectively. To evaluate the drug effect on the seizure severity, time of Straightening Reflex Loss and the presence of tonic hindlimb extension were selected as the parameters.

PTZ-treated mice = experiment: Chemically induced seizures (pentylenetetrazole, PTZ); format: in vivo; settings: for % Protection on PTZ induced convulsions: PTZ 90 mg/kg i.p. 30 min after compound, 20 mice
Experimental: Seizure-inducer pentylenetetrazole (PTZ) (90 mg/kg i.p.) was administered to mice 30 min after i.p. administration of the test compound.
Compound of Example 1 at the doses of 10 and 30 mg/kg i.p. was able to protect the animals from PTZ-induced convulsions. […]

[1] = 10 mg/kg i.p., stimulus 30 min after administration
[2] = 30 mg kg^-1 p.o., stimulus 60 min after administration

For `C[C@H]1C(=O)NC(C)(C)N1Cc1ccc(OCc2cccc(F)c2)cc1` [Example 1, (S)-(-)-1-[4-(3-Fluoro-benzyloxy)-benzyl]-2,2,5-trimethyl-imidazolidin-4-one], which “MES % Protection from Tonic Extension” value (mice; [1]) is on record?
The value was 50* %.

And the “Time of Straightening Reflex Loss” value (mice; [1])?
Its value is 66.8 ± 9.3 s.

And the “MES % Protection from Tonic Extension” value (mice; [2])?
Its value is 30%.

What about the “Time of Straightening Reflex Loss” value (mice; [2]) of the same compound?
The value was 56.8 ± 6.3 s.

And the “anticonvulsant activity in MES test (in words)” value (mice; either after i.p. (10 mg/kg) or oral (30 mg/kg) administration)?
The value was “significant anticonvulsant activity”.

What about the “% Protection on PTZ induced convulsions” value (PTZ-treated mice; 3 mg/kg i.p.) of the same compound?
The value was 0%.

What about the “% Protection on PTZ induced convulsions” value (PTZ-treated mice; 10 mg/kg i.p.) of the same compound?
Its value is 40%.

What about the “% Protection on PTZ induced convulsions” value (PTZ-treated mice; 30 mg/kg i.p.) of the same compound?
Its value is 90%.

And the “protection from PTZ-induced convulsions (in words)” value (PTZ-treated mice; highest dose (30 mg/kg i.p.))?
The value was “almost complete”.

From EP2093218A1, “Arylalkyl substituted imidazolidinones” (Fariello, Ruggero, priority 2008, dated 2009)
